Source: US10251931B2, “Cyclic peptides and methods using same” (priority 2014, dated 2019)
pIC50, pKd: −log10 of the molar value. Entries after “also recorded” stand apart in the source; their conditions may differ. Read-outs that look alike come from different tables or passages of the source. Positions of bridges follow the written chain, without caps; N, C: chain ends. Non-standard residues stand in square brackets, D forms with d. Residues, ends and D or L forms follow the SMILES beside them. Pro(cis-4-Trz(4-CH2CH2Ph)) = O=C(O)[C@@H]1C[C@H](n2cc(CCc3ccccc3)nn2)CN1

Tests used:
S375W mutant of gp120 = S375W mutant of gp120 (Human immunodeficiency virus type 1 group M subtype B, UniProt P35961, S370W); experiment: SPR competition with gp120 mutant S375W; assay type: binding, HIV-1
S375H mutant of gp120 = S375H mutant of gp120 (Human immunodeficiency virus type 1 group M subtype B, UniProt P35961, S370H); experiment: SPR competition with gp120 mutant S375H; assay type: binding, HIV-1
HIV-1 gp120 = target: T1, HIV-1 gp120 (Human immunodeficiency virus type 1 group M subtype B, UniProt P35961); assay type: binding
T1 construct: Expression and Purification of Wild-Type gp120YU-2; made in house; host or cells: HEK 293F
Experimental: SPR competition binding assays were used to assess the structural elements required for cyclic hexapeptide binding to gp120. […] In an attempt to restore the lost contact, the length of the two linkers was changed (Linker 1 and Linker 2 in FIG. 12).
SPR experiments were performed on a Biacore 3000 optical biosensor (GE Healthcare). All experiments were carried out at 25° C. using standard PBS buffer pH=7.4 with 0.005% surfactant Tween. A CM5 sensor chip was derivatized by standard 1-ethyl-3-(3-dimethylaminopropyl) carbodiimide (EDC)/N-hydroxysuccinimide (NHS) chemistry, and coupling was done through ligand amine groups. Antibody 2B6R (α-human IL5R) was immobilized for negative control surfaces. For competition experiments, soluble four domain CD4 and 17b antibody were immobilized on the surface through standard EDC/NHS chemistry. For kinetic analyses, typically 2000-3000 RUs of protein reagents were immobilized on SPR chips, and analytes were passed over the surface at 50-100 μL/min. Surface regeneration was achieved by a 5 μL injection of 10 mM HCl solution at 100 μL/min. […] Regeneration of the surface was achieved by a single 10 second pulse of 1.3 M NaCl/35 mM NaOH and single 5-second pulse of 10 mM glycine, pH 1.5, for sCD4 and mAb 17b, respectively. All analyses were performed in triplicate.
The inhibition curve was converted into a calibration curve by the use of a fitting function. The fitting was done using the 4-parameter Equation (1) from BIAevaluation software,
The cyclic peptides of the invention were tested against HIV-1 gp120 by SPR competition assays as described elsewhere herein. A mixture of the cyclic peptide/gp120 solutions was passed over SPR chip immobilized with CD4 and 17b separately. The competition assay evaluated the ability of each peptide to inhibit the binding between gp120 and both soluble CD4 and 17b antibody, a surrogate for co-receptor.

HIV-1 JR-FL pseudovirus = experiment: Inhibition of HIV-1 infection against JR-FL (HOS.T4.R5 cells, luciferase); assay type: cell-based
[1] = target: T2, Trypsin (from bovine pancreas) (Bos taurus, UniProt P00760); experiment: In vitro proteolytic stability, trypsin; conditions: 5 h incubation, 37° C.
T2 sequence (P00760 24-246): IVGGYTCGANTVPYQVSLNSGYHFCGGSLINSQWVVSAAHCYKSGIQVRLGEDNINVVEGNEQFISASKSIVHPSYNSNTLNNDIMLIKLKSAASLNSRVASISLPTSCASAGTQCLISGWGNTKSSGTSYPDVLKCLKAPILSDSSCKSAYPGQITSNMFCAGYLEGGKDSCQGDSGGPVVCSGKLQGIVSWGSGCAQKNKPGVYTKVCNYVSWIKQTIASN

[2] = target: Chymotrypsin (bovine pancreas) (Bos taurus, UniProt P00766); experiment: In vitro proteolytic stability, chymotrypsin
HIV-1 Bal.01 pseudovirus = experiment: Inhibition of HIV-1 infection against Bal.01 (HOS.T4.R5 cells, luciferase); assay type: cell-based
[3] = tested on: viruses pseudotyped with VSV-G; conditions: cited from earlier work
[4] = tested on: HIV-1 subtype A, B and C isolates; conditions: read-out: IC50 range, neutralization of viral infection; cited from earlier work
tissue explants model = conditions: concentrations up to 100 μM; cited from earlier work
monomeric gp120 = monomeric gp120 (Human immunodeficiency virus type 1 group M subtype B, UniProt P35961); conditions: read-out: KD, binding to monomeric gp120; cited from earlier work

For CC[C@H](C)[C@H](N)C(=O)N[C@H]1CCC(=O)NCCCC[C@@H](C(N)=O)NC(=O)[C@H](Cc2c[nH]c3ccccc23)NC(=O)[C@@H]2C[C@H](n3cc(CCc4ccccc4)nn3)CN2C(=O)[C@H]([C@@H](C)CC)NC(=O)[C@H](CC(N)=O)NC1=O [AAR024, (3S,6S,15S,18S,21S,25S,26aS)-3-((1H-indol-3-yl)methyl)-18-(2-amino-2-oxoethyl)-15-((2S,3S)-2-amino-3-methylpentanamido)-21-((S)-sec-butyl)-1,4,12,16,19,22-hexaoxo-25-(4-phenethyl-1H-1,2,3-triazol-1-yl)hexacosahydropyrrolo[2,1-f][1,4,7,10,13,19]hexaazacyclotetracosine-6-carboxamide] (H-IENI[Pro(cis-4-Trz(4-CH2CH2Ph))]WK-NH2; lactam 2-7), the “Activity against S375W mutant of gp120” value (S375W mutant of gp120) was “inactive”, the “Activity against S375H mutant of gp120” value (S375H mutant of gp120) was “inactive” and the “fold more active than the linear analogue” value (HIV-1 gp120) was > 40 fold. The “Dual receptor site (CD4 and 17b) inhibition of gp120, in words” value (HIV-1 gp120; SPR competition) was “retained the dual receptor site inhibitory signature of linear PTs; also recorded: dual inhibitors”.
With CC[C@H](C)[C@@H]1NC(=O)[C@H](CC(N)=O)NC(=O)[C@@H](N)CC(=O)NCCCC[C@@H](C(N)=O)NC(=O)[C@H](Cc2c[nH]c3ccccc23)NC(=O)[C@@H]2C[C@H](n3cc(CCc4ccccc4)nn3)CN2C1=O [AAR029, (3S,6S,14S,17S,20S,24S,25aS)-3-((1H-indol-3-yl)methyl)-14-amino-17-(2-amino-2-oxoethyl)-20-((S)-sec-butyl)-1,4,12,15,18,21-hexaoxo-24-(4-phenethyl-1H-1,2,3-triazol-1-yl)tetracosahydro-1H-pyrrolo[2,1-f][1,4,7,10,13,18]hexaazacyclotricosine-6-carboxamide] (H-DNI[Pro(cis-4-Trz(4-CH2CH2Ph))]WK-NH2; lactam 1-6) the “Infection inhibition against JR-FL, in words” value (HIV-1 JR-FL pseudovirus) was “inhibiting activity”, the “Resistance to trypsin, in words” value [1] was “completely resistant” and the “State after chymotrypsin treatment, in words” value ([2]; 30 min incubation, 37° C.) was “almost unchanged”. For the same compound, the “Resistance to chymotrypsin, in words” value ([2]; 5 h incubation, 37° C.) was “completely resistant”, the “Intactness after chymotrypsin digestion, in words” value ([2]; 40 h incubation, HPLC and ESI-MS) was “remained intact” and the “Time the peptide remained stable” value ([2]; in the presence of trypsin and chymotrypsin, 37° C., pH 8.2) was > 40 h. For the same compound, the “Infection inhibition against Bal.01, in words” value (HIV-1 Bal.01 pseudovirus) was “inhibiting activity”, the “fold enhanced activity vs AAR029b” value (HIV-1 gp120) was ~2 fold and the “fold more active than the linear analogue” value (HIV-1 gp120) was > 200 fold. For the same compound, the “Dual receptor site (CD4 and 17b) inhibition of gp120, in words” value (HIV-1 gp120; SPR competition) was “dual inhibitors”.
For “(3S,6S,12S,15S,19S,20aS)-3-((1H-indol-3-yl)methyl)-12-amino-15-((S)-sec-butyl)-19-(4-ferrocenyl-1H-1,2,3-triazol-1-yl)-1,4,10,13,16-pentaoxoicosahydropyrrolo [1,2-d][1,4,7,10,14]pentaazacyclooctadecine-6-carboxamide [AAR040]”, the “Dual receptor site (CD4 and 17b) inhibition of gp120, in words” value (HIV-1 gp120; SPR competition) was “dual inhibitors”.
In the case of “(3S,6S,14S,17S,20S,24S,25aS)-3-((1H-indol-3-yl)methyl)-14-amino-17-(2-amino-2-oxoethyl)-20-butyl-24-(4-ferrocenyl-1H-1,2,3-triazol-1-yl)-1,4,12,15,18,21-hexaoxotetracosahydro-1H-pyrrolo[2,1-f][1,4,7,10,13,18]hexaazacyclotricosine-6-carboxamide [AAR036]”, the “Dual receptor site (CD4 and 17b) inhibition of gp120, in words” value (HIV-1 gp120; SPR competition) was “dual inhibitors”.
With “(3S,6S,14S,17S,20S,24S,25aS)-3-((1H-indol-3-yl)methyl)-14-amino-17-(2-amino-2-oxoethyl)-20-cyclohexyl-24-(4-ferrocenyl-1H-1,2,3-triazol-1-yl)-1,4,12,15,18,21-hexaoxotetracosahydro-1H-pyrrolo[2,1-f][1,4,7,10,13,18]hexaazacyclotricosine-6-carboxamide [AAR029b-Chg]” the “Infection inhibition against Bal.01, in words” value (HIV-1 Bal.01 pseudovirus) was “inhibiting activity”.
In the case of “(3S,6S,14S,17S,20S,24S,25aS)-3-((1H-indol-3-yl)methyl)-14-amino-17-(2-amino-2-oxoethyl)-20-cyclopropyl-24-(4-ferrocenyl-1H-1,2,3-triazol-1-yl)-1,4,12,15,18,21-hexaoxotetracosahydro-1H-pyrrolo[2,1-f][1,4,7,10,13,18]hexaazacyclotricosine-6-carboxamide [AAR042]”, the “Dual receptor site (CD4 and 17b) inhibition of gp120, in words” value (HIV-1 gp120; SPR competition) was “dual inhibitors”.
For “(3S,6S,14S,17S,20S,24S,25aS)-14-amino-17-(2-amino-2-oxoethyl)-3-(benzo[b]thiophen-3-ylmethyl)-20-(sec-butyl)-24-(4ferocenyl-1H-1,2,3-triazol-1-yl)-1,4,12,15,18,21-hexaoxotetracosahydro-1H-pyrrolo[2,1-f][1,4,7,10,13,18]hexaazacyclotricosine-6-carboxamide [AAR029E]”, the “Infection inhibition against Bal.01, in words” value (HIV-1 Bal.01 pseudovirus) was “inhibiting activity” and the “Dual receptor site (CD4 and 17b) inhibition of gp120, in words” value (HIV-1 gp120) was “dual inhibitors”.
For “(3S,6S,15S,18S,21S,25S,26aS)-3-((1H-indol-3-yl)methyl)-18-(2-amino-2-oxoethyl)-15-((2S,3S)-2-amino-3-methylpentanamido)-21-((S)-sec-butyl)-25-(4-ferrocenyl-1H-1,2,3-triazol-1-yl)-1,4,12,16,19,22-hexaoxohexacosahydropyrrolo[2,1-f][1,4,7,10,13,19]hexaazacyclotetracosine-6-carboxamide [AAR024b]”, the “Infection inhibition against JR-FL, in words” value (HIV-1 JR-FL pseudovirus) was “inhibiting activity”, the “Infection inhibition against Bal.01, in words” value (HIV-1 Bal.01 pseudovirus) was “inhibiting activity” and the “Dual receptor site (CD4 and 17b) inhibition of gp120, in words” value (HIV-1 gp120; SPR competition) was “enhanced dual receptor site antagonizing activities; also recorded: dual inhibitors”.
In the case of “(S)-4-((S)-2-((S)-2-((2S,4S)-1-(L-arginyl-L-isoleucyl-L-asparaginyl-L-asparaginyl-L-alloisoleucyl)-4-(4-ferrocenyl-1H-1,2,3-triazol-1-yl)pyrrolidine-2-carboxamido)-3-(1H-indol-3-yl)propanamido)-3-hydroxypropanamido)-5-(((S)-1-(((S)-1-(((S)-1-amino-4-(methylthio)-1-oxobutan-2-yl)amino)-4-(methylthio)-1-oxobutan-2-yl)amino)-1-oxopropan-2-yl)amino)-5-oxopentanoic acid [HNG156]”, the “Neutralization of VSV-G pseudotyped viruses, in words” value [3] is listed as “not”, the pIC50 [4] is listed as 4.20 to 7.10 and the “Toxicity in tissue explants model” value (tissue explants model) is listed as “no detectable toxicity”. For the same compound, the pKd (monomeric gp120) was 8.15.
